Measurements as given in US20240425500A1 (priority 2021, published 2024).

Tests used:
Phytophthora infestans = experiment: whole plant or invertebrate; assay type: in vivo; details: in Solanum lycopersicum, foliar, read-out: control of Phytophthora infestans compared to untreated control
Plasmopara viticola = experiment: whole plant or invertebrate; assay type: in vivo; details: foliar, read-out: control of Plasmopara viticola compared to untreated control
Pythium ultimum = Pythium ultimum / liquid culture (seedling damping off); assay type: cell-based; details: Globisporangium ultimum, liquid culture in PDB, 24 °C, 2-3 days after application, read-out: control of Pythium ultimum (inhibition of growth, photometric) compared to untreated control
Outline: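 Mycelia fragments and oospores from fresh liquid culture mixed into potato dextrose broth and added to compound in DMSO. Incubated at 24° C.; growth inhibition read photometrically 2–3 days after application.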

COC(=O)Nc1ccc(-c2cnc3ccc(C(=O)N(C)c4ccc(Cl)cc4)cn23)cc1 [Compound 2, methyl N-[4-[6-[(4-chlorophenyl)-methyl-carbamoyl]imidazo[1,2-a]pyridin-3-yl]phenyl]carbamate]
≥ 80%: pest or weed control at 200 ppm (Phytophthora infestans) | pest or weed control at 200 ppm (Plasmopara viticola) | inhibition at 20 ppm (Pythium ultimum)

CC(=O)Nc1ccc(-c2cnc3ccc(C(=O)N(C)c4ccc(Cl)cc4)cn23)cn1 [Compound 3, 3-(6-acetamido-3-pyridyl)-N-(4-chlorophenyl)-N-methyl-imidazo [1,2-a]pyridine-6-carboxamide]
≥ 80%: pest or weed control at 200 ppm (Phytophthora infestans) | pest or weed control at 200 ppm (Plasmopara viticola) | inhibition at 20 ppm (Pythium ultimum)

COC(=O)Nc1ccc(-c2cnc3ccc(C(=O)N(C)c4ccc(Cl)cc4)cn23)cn1 [Compound 4, methyl N-[5-[6-[(4-chlorophenyl)-methyl-carbamoyl]imidazo[1,2-a]pyridin-3-yl]-2-pyridyl]carbamate]
≥ 80%: pest or weed control at 200 ppm (Phytophthora infestans) | pest or weed control at 200 ppm (Plasmopara viticola) | inhibition at 20 ppm (Pythium ultimum)

COC(=O)Nc1ccc(-c2cnc3ccc(C(=O)N(C)c4ccc(C#N)cc4)cn23)cc1 [Compound 6, methyl N-[4-[6-[(4-cyanophenyl)-methyl-carbamoyl]imidazo[1,2-a]pyridin-3-yl]phenyl]carbamate]
≥ 80%: pest or weed control at 200 ppm (Phytophthora infestans) | pest or weed control at 200 ppm (Plasmopara viticola) | inhibition at 20 ppm (Pythium ultimum)

COC(=O)Nc1ccc(-c2cnc3ccc(C(=O)N(C)c4cccc(OC)c4)cn23)cc1 [Compound 7, methyl N-[4-[6-[(3-methoxyphenyl)-methyl-carbamoyl]imidazo[1,2-a]pyridin-3-yl]phenyl]carbamate]
≥ 80%: pest or weed control at 200 ppm (Phytophthora infestans) | pest or weed control at 200 ppm (Plasmopara viticola) | inhibition at 20 ppm (Pythium ultimum)

COC(=O)Nc1ccc(-c2cnc3ccc(C(=O)N(C)c4ccc(F)cc4)cn23)cc1 [Compound 11, methyl N-[4-[6-[(4-fluorophenyl)-methyl-carbamoyl]imidazo[1,2-a]pyridin-3-yl]phenyl]carbamate]
≥ 80%: pest or weed control at 200 ppm (Phytophthora infestans) | pest or weed control at 200 ppm (Plasmopara viticola) | inhibition at 20 ppm (Pythium ultimum)

COC(=O)Nc1ccc(-c2cnc3ccc(C(=O)N(C)c4ccc(C#N)cc4)cn23)cn1 [Compound 15, methyl N-[5-[6-[(4-cyanophenyl)-methyl-carbamoyl]imidazo[1,2-a]pyridin-3-yl]-2-pyridyl]carbamate]
≥ 80%: pest or weed control at 200 ppm (Phytophthora infestans) | pest or weed control at 200 ppm (Plasmopara viticola) | inhibition at 20 ppm (Pythium ultimum)

COC(=O)Nc1ccc(-c2cnc3c(C)cc(C(=O)N(C)c4ccc(Cl)cc4)cn23)cc1 [Compound 19, methyl N-[4-[6-[(4-chlorophenyl)-methyl-carbamoyl]-8-methyl-imidazo[1,2-a]pyridin-3-yl]phenyl]carbamate]
≥ 80%: pest or weed control at 200 ppm (Phytophthora infestans) | pest or weed control at 200 ppm (Plasmopara viticola) | inhibition at 20 ppm (Pythium ultimum)

COC(=O)Nc1ccc(-c2cnc3ccc(C(=O)N(C)c4ccc(F)cc4)cn23)cn1 [Compound 25, methyl N-[5-[6-[(4-fluorophenyl)-methyl-carbamoyl]imidazo[1,2-a]pyridin-3-yl]-2-pyridyl]carbamate]
≥ 80%: pest or weed control at 200 ppm (Phytophthora infestans) | pest or weed control at 200 ppm (Plasmopara viticola) | inhibition at 20 ppm (Pythium ultimum)

COC(=O)Nc1ccc(-c2cnc3ccc(C(=O)N(C)c4ccnc(OC)c4)cn23)cc1 [Compound 26, methyl N-[4-[6-[(2-methoxy-4-pyridyl)-methyl-carbamoyl]imidazo[1,2-a]pyridin-3-yl]phenyl]carbamate]
≥ 80%: pest or weed control at 200 ppm (Phytophthora infestans) | pest or weed control at 200 ppm (Plasmopara viticola) | inhibition at 20 ppm (Pythium ultimum)

COC(=O)Nc1ccc(-c2cnc3ccc(C(=O)N(c4ccc(Cl)cc4)C4CC4)cn23)cc1 [Compound 27, methyl N-[4-[6-[(4-chlorophenyl)-cyclopropyl-carbamoyl]imidazo[1,2-a]pyridin-3-yl]phenyl]carbamate]
≥ 80%: pest or weed control at 200 ppm (Phytophthora infestans) | pest or weed control at 200 ppm (Plasmopara viticola) | inhibition at 20 ppm (Pythium ultimum)

COC(=O)Nc1ccc(-c2cnc3ccc(C(=O)N(CC#N)c4ccc(Cl)cc4)cn23)cc1 [Compound 31, methyl N-[4-[6-[(4-chlorophenyl)-(cyanomethyl)carbamoyl]imidazo[1,2-a]pyridin-3-yl]phenyl]carbamate]
≥ 80%: pest or weed control at 200 ppm (Phytophthora infestans) | pest or weed control at 200 ppm (Plasmopara viticola) | inhibition at 20 ppm (Pythium ultimum)

CCN(C(=O)c1ccc2ncc(-c3ccc(NC(=O)OC)cc3)n2c1)c1ccc(Cl)cc1 [Compound 32, methyl N-[4-[6-[(4-chlorophenyl)-ethyl-carbamoyl]imidazo[1,2-a]pyridin-3-yl]phenyl]carbamate]
≥ 80%: pest or weed control at 200 ppm (Phytophthora infestans) | pest or weed control at 200 ppm (Plasmopara viticola) | inhibition at 20 ppm (Pythium ultimum)

COC(=O)Nc1ccc(-c2cnc3c(OC)cc(C(=O)N(C)c4ccc(Cl)cc4)cn23)cc1 [Compound 37, methyl N-[4-[6-[(4-chlorophenyl)-methyl-carbamoyl]-8-methoxy-imidazo[1,2-a]pyridin-3-yl]phenyl]carbamate]
≥ 80%: pest or weed control at 200 ppm (Phytophthora infestans) | pest or weed control at 200 ppm (Plasmopara viticola) | inhibition at 20 ppm (Pythium ultimum)

COC(=O)Nc1ccc(-c2cnc3ccc(C(=O)N(C)c4ccc(F)c(OC)c4)cn23)cn1 [Compound 45, methyl N-[5-[6-[(4-fluoro-3-methoxy-phenyl)-methyl-carbamoyl]imidazo[1,2-a]pyridin-3-yl]-2-pyridyl]carbamate]
≥ 80%: pest or weed control at 200 ppm (Phytophthora infestans) | pest or weed control at 200 ppm (Plasmopara viticola) | inhibition at 20 ppm (Pythium ultimum)

COC(=O)Nc1ccc(-c2cnc3ccc(C(=O)N(C)c4ccc(Cl)c(C)c4)cn23)cn1 [Compound 46, methyl N-[5-[6-[(4-chloro-3-methyl-phenyl)-methyl-carbamoyl]imidazo[1,2-a]pyridin-3-yl]-2-pyridyl]carbamate]
≥ 80%: pest or weed control at 200 ppm (Phytophthora infestans) | pest or weed control at 200 ppm (Plasmopara viticola) | inhibition at 20 ppm (Pythium ultimum)

COC(=O)Nc1ccc(-c2cnc3ccc(C(=O)N(C)c4ccc(F)c(C)c4)cn23)cn1 [Compound 48, methyl N-[5-[6-[(4-fluoro-3-methyl-phenyl)-methyl-carbamoyl]imidazo[1,2-a]pyridin-3-yl]-2-pyridyl]carbamate]
≥ 80%: pest or weed control at 200 ppm (Phytophthora infestans) | pest or weed control at 200 ppm (Plasmopara viticola) | inhibition at 20 ppm (Pythium ultimum)

COC(=O)Nc1ccc(-c2cnc3ccc(C(=O)N(C)c4ccc(F)c(F)c4)cn23)cn1 [Compound 50, methyl N-[5-[6-[(3,4-difluorophenyl)-methyl-carbamoyl]imidazo[1,2-a]pyridin-3-yl]-2-pyridyl]carbamate]
≥ 80%: pest or weed control at 200 ppm (Phytophthora infestans) | pest or weed control at 200 ppm (Plasmopara viticola) | inhibition at 20 ppm (Pythium ultimum)

COC(=O)Nc1ccc(-c2cnc3ccc(C(=O)N(C)c4ccc(C#N)c(OC)c4)cn23)cn1 [Compound 51, methyl N-[5-[6-[(4-cyano-3-methoxy-phenyl)-methyl-carbamoyl]imidazo[1,2-a]pyridin-3-yl]-2-pyridyl]carbamate]
≥ 80%: pest or weed control at 200 ppm (Phytophthora infestans) | pest or weed control at 200 ppm (Plasmopara viticola) | inhibition at 20 ppm (Pythium ultimum)

COC(=O)Nc1ccc(-c2cnc3ccc(C(=O)N(C)c4ccc(C#N)c(C)c4)cn23)cn1 [Compound 53, methyl N-[5-[6-[(4-cyano-3-methyl-phenyl)-methyl-carbamoyl]imidazo[1,2-a]pyridin-3-yl]-2-pyridyl]carbamate]
≥ 80%: pest or weed control at 200 ppm (Phytophthora infestans) | pest or weed control at 200 ppm (Plasmopara viticola) | inhibition at 20 ppm (Pythium ultimum)

COC(=O)Nc1ccc(-c2cnc3ccc(C(=O)N(C)c4cccc(C(F)F)c4)cn23)cn1 [Compound 57, methyl N-[5-[6-[[3-(difluoromethyl)phenyl]-methyl-carbamoyl]imidazo[1,2-a]pyridin-3-yl]-2-pyridyl]carbamate]
≥ 80%: pest or weed control at 200 ppm (Phytophthora infestans) | pest or weed control at 200 ppm (Plasmopara viticola) | inhibition at 20 ppm (Pythium ultimum)

COC(=O)Nc1ccc(-c2cnc3ccc(C(=O)N(C)c4cccc(OC)c4)cn23)cn1 [Compound 63, methyl N-[5-[6-[(3-methoxyphenyl)-methyl-carbamoyl]imidazo[1,2-a]pyridin-3-yl]-2-pyridyl]carbamate]
≥ 80%: pest or weed control at 200 ppm (Phytophthora infestans) | pest or weed control at 200 ppm (Plasmopara viticola) | inhibition at 20 ppm (Pythium ultimum)

COC(=O)Nc1ccc(-c2cnc3ccc(C(=O)N(C)c4ccnc(OC)c4)cn23)cn1 [Compound 70, methyl N-[5-[6-[(2-methoxy-4-pyridyl)-methyl-carbamoyl]imidazo[1,2-a]pyridin-3-yl]-2-pyridyl]carbamate]
≥ 80%: pest or weed control at 200 ppm (Phytophthora infestans) | pest or weed control at 200 ppm (Plasmopara viticola) | inhibition at 20 ppm (Pythium ultimum)

COC(=O)Nc1ccc(-c2cnc3ccc(C(=O)N(C)c4cccc(I)c4)cn23)cn1 [Compound 73, methyl N-[5-[6-[(3-iodophenyl)-methyl-carbamoyl]imidazo[1,2-a]pyridin-3-yl]-2-pyridyl]carbamate]
≥ 80%: pest or weed control at 200 ppm (Phytophthora infestans) | pest or weed control at 200 ppm (Plasmopara viticola) | inhibition at 20 ppm (Pythium ultimum)

COC(=O)Nc1ccc(-c2cnc3ccc(C(=O)N(C)c4ccc(Cl)c(OC)c4)cn23)cn1 [Compound 75, methyl N-[5-[6-[(4-chloro-3-methoxy-phenyl)-methyl-carbamoyl]imidazo[1,2-a]pyridin-3-yl]-2-pyridyl]carbamate]
≥ 80%: pest or weed control at 200 ppm (Phytophthora infestans) | pest or weed control at 200 ppm (Plasmopara viticola) | inhibition at 20 ppm (Pythium ultimum)

COCCN(C(=O)c1ccc2ncc(-c3ccc(NC(=O)OC)nc3)n2c1)c1ccc(F)cc1 [Compound 76, methyl N-[5-[6-[(4-fluorophenyl)-(2-methoxyethyl)carbamoyl]imidazo[1,2-a]pyridin-3-yl]-2-pyridyl]carbamate]
≥ 80%: pest or weed control at 200 ppm (Phytophthora infestans) | pest or weed control at 200 ppm (Plasmopara viticola) | inhibition at 20 ppm (Pythium ultimum)

COC(=O)Nc1ccc(-c2cnc3c(C)cc(C(=O)N(C)c4ccc(F)cc4)cn23)cn1 [Compound 82, methyl N-[5-[6-[(4-fluorophenyl)-methyl-carbamoyl]-8-methyl-imidazo[1,2-a]pyridin-3-yl]-2-pyridyl]carbamate]
≥ 80%: pest or weed control at 200 ppm (Phytophthora infestans) | pest or weed control at 200 ppm (Plasmopara viticola) | inhibition at 20 ppm (Pythium ultimum)
